Experiments:
diabetic (ob/ob) mice = experiment: blood glucose lowering activity in diabetic (ob/ob) mice; type: in vivo, mouse (ob/ob, C57 B1/6J); details: positive control, 100 mg/kg/day
Source text: The procedures used and results obtained are briefly described below.
The no -insulin dependent diabetic (NIDDM) syndrome can be typically characterizes by obesity, hyperglycemia, abnormal insulin secretion, hyperinsulinemia and insulin resistance.
In each test procedure, mice [Male or female ob/ob (C57 B1/6J) and their lean litermates (ob/+ or +/+, Jackson Laboratories) ages 2 to 5 months (10 to 65 g)] of a similar age were randomized according to body weight into 4 groups of 10 mice. The mice were housed 5 per cage and are maintained on normal rodent chow with water ad libitum. Mice received test compound daily by gavage (suspended in 0.5 ml of 0.5% methyl cellulose); dissolved in the drinking water; or admixed in the diet. The dose of compounds given ranges from 2.5 to 200 mg/kg body weight/day. The dose is calculated based on the fed weekly body weight and is expressed as active moiety. […] Control mice received vehicle only.
On the morning of Day 4, 7 or 14 two drops of blood (approximetly 50 ul) were collected into sodium fluoride containing tubes either from the tail vein or after decapitation. […] The plasma was isolated by centrifugation and the concentration of glucose is measured enzymatically on an Abbott V.P. Analyzer.
For each mouse, the percentage change in plasma glucose on Day 4, 7 or 14 is calculated relative to the mean plasma glucose of the vehicle treated mice. […]

hPTP1B = molecular target: T1, hPTP1B (Homo sapiens, UniProt P18031); experiment: Inhibition of Tri-Phosphorylated Insulin Receptor Dodecaphosphopeptide Dephosphorylation by hPTP1B; type: biochemical
T1 construct: made in house
T1 sequence (P18031 1-435): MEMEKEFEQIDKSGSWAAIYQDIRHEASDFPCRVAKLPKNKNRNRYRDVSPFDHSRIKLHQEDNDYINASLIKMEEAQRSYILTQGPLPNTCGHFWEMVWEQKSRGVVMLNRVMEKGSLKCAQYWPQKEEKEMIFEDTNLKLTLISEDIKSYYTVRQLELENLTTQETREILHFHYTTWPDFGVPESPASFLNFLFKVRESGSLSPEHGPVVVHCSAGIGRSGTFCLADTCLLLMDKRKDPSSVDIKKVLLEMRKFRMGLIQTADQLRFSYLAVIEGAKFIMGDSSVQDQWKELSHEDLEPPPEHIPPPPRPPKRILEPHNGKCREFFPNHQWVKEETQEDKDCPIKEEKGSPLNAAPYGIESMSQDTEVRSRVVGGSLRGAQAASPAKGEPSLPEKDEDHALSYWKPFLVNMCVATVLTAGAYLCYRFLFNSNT

SMILES: CC1(COc2ccc(CC3SC(=O)NC3=O)cc2)CCCCC1 (centres unmarked) [Ciglitazone, 5-(4-(1-methylcyclohexylmethoxy)benzyl)-2,4-dione]
- plasma glucose lowering (in words) (diabetic (ob/ob) mice): significant lowering in plasma glucose

SMILES: Cc1oc(-c2ccc(C(F)(F)F)cc2)nc1-c1ccc(-c2ccc(OS(=O)(=O)c3ccc(C(=O)O)c(O)c3)cc2)cc1 [Example 14]
- IC50 (hPTP1B): 193 nM
